These results are taken from publication PMC11171218, “N-Benzylated 5-Hydroxybenzothiophene-2-carboxamides as Multi-Targeted Clk/Dyrk Inhibitors and Potential Anticancer Agents” (Cancers, 2024).

For one data set, the target named is Clk3 (Homo sapiens, UniProt P49761). Kind of data set: Z'-LYTE kinase inhibition assay, Clk3. The class given is biochemical. The note with it: 1 µM compound; screening by Thermo Fisher Scientific. From the text:
(§1) 3. Experimental procedure for protein kinases and inhibition assays.
(§2) 3.1 The Z ́ -LYTE biochemical assay for screening and IC 50 determination for Clk1, Dyrk1A, Dyrk1B, Clk2 and Clk3 kinases.
(§3) The assay employs a fluorescence-based, coupled-enzyme format and is based on the differential sensitivity of phosphorylated and non-phosphorylated peptides to proteolytic cleavage. The peptide substrate is labeled with two fluorophores-one at each end-that make up a FRET pair. In the primary reaction, the kinase transfers the gamma-phosphate of ATP to a single tyrosine, serine, or threonine residue in a synthetic FRET-peptide. In the secondary reaction, a site-specific protease recognizes and cleaves non-phosphorylated FRET-peptides. Phosphorylation of FRET-peptides suppresses cleavage by the Development Reagent. Cleavage disrupts FRET between the donor (i.e., coumarin) and acceptor (i.e., fluorescein) fluorophores on the FRET-peptide, whereas uncleaved, phosphorylated FRET-peptides maintain FRET. A ratiometric method, which calculates the ratio (the Emission Ratio) of donor emission to acceptor emission after excitation of the donor fluorophore at 400 nm, is used to quantitate reaction progress. Both cleaved and uncleaved FRET-peptides contribute to the fluorescence signals and therefore to the Emission Ratio. The extent of phosphorylation of the FRET-peptide can be calculated from the Emission Ratio. The Emission Ratio will remain low if the FRET-peptide is phosphorylated (i.e., no kinase inhibition) and will be high if the FRET-peptide is non-phosphorylated (i.e., kinase inhibition).
(§4) The IC 50 values were determined for compounds displaying significant % inhibition in the screening step. IC 50 determination was done through testing at a range of concentrations with two […]
(§5) two independent experiments. […]
(§6) Development Reagent A is added. […]
3.1.5 Clk3 kinase assay specific conditions:
The 2X Clk3 / Ser/Thr 18 mixture is prepared in 50 mM Tris pH 8.5, 0.01% BRIJ-35, 10 mM […]
(§7) MgCl2, 1 mM EGTA, 0.02% NaN3. […]
of Development Reagent A is added.

The next data set has as its system T24 cells. Kind of data set: CCK-8 cell viability, T24. It counts as cell-based. The note with it: Homo sapiens, T-24, 72 h; for inhibition at 20 µM: CCK-8, mean ± S.E.M. (n = 3), read-out: T24 % Inh. at μM; for IC50: CCK-8, 50% inhibition of viability. On the procedure:
(§8) All cells were purchased from Bioresource Collection and Research Center (Hsinchu, Taiwan) and cultured in corresponding media supplemented with 10% fetal bovine serum, 1 × Antibiotic-Antimycotic at 37 °C in a humidified incubator with 5% CO2. […] T24 cells were cultured in McCoy’s 5a media. IEC-6 cells were cultured in DMEM media supplemented with 5% fetal bovine serum, 1 × Antibiotic–Antimycotic, and 0.1 unit/mL insulin.
(§9) Cells were incubated with the Cell Counting Kit-8 (CCK-8) reagent (TargetMol, Boston, MA, USA) at 37 °C for 2 h. The cell viability was determined by spectrophotometer at 450 nm.

Another data set relates to A549 cells. Briefly: CCK-8 cell viability, A549. The class given is cell-based. Particulars: Homo sapiens, 72 h, CCK-8, mean ± S.E.M. (n = 3), read-out: A549 % Inh. at μM. On the procedure: as §8, §9
A further data set relates to MCF-7 cells. Briefly: CCK-8 cell viability, MCF-7. The class given is cell-based. The note with it: Homo sapiens, MCF7, 72 h, CCK-8, mean ± S.E.M. (n = 3), read-out: MCF-7 % Inh. at μM. The method, then: as §8, §9
The target of another data set is Dyrk1B (Homo sapiens, UniProt Q9Y463). Kind of data set: Z'-LYTE kinase inhibition assay, Dyrk1B. The class given is biochemical. The note with it: for IC50: ATP conc. equivalent to Km; for inhibition at 1 µM: read-out: Dyrk1B % Inh. At 1 µM.
From the text: as §1, §2, §3, §4, §5
3.1.3 Dyrk1B kinase assay specific conditions:
The 2X Dyrk1B / Ser/Thr 18 mixture is prepared in 50 mM HEPES pH 6.5, 0.01% BRIJ-35, 10 […]
mM MgCl2, 1 mM EGTA, 0.02% NaN3.
as §6, §7

The test system of the next data set is HCT-116 cells. Kind of data set: CCK-8 cell viability, HCT-116. The class given is cell-based. Particulars: Homo sapiens, 72 h; for IC50: HCT-116, read-out: HCT-116 IC50 in µM, CCK-8, 50% inhibition of viability; for inhibition at 20 µM: HCT-116, read-out: HCT-[…] Inh. at 20 μM, CCK-8, mean ± S.E.M. (n = 3). The method, then: as §8, §9
A further data set addresses Dyrk1A (Homo sapiens, UniProt Q13627). Briefly: Z'-LYTE kinase inhibition assay, Dyrk1A. The note with it: for IC50: ATP conc. equivalent to Km; for inhibition at 1 µM: read-out: Dyrk1A % Inh. At 1 µM. It counts as biochemical.
From the text: as §1, §2, §3, §4, §5
3.1.2 Dyrk1A kinase assay specific conditions:
The 2x Dyrk1A / Ser/Thr 18 mixture is prepared in 50 mM HEPES pH 7.5, 0.01% BRIJ-35, 10 […]
2 µM Ser/Thr 18 in 50 mM HEPES pH 7.5, 0.01% BRIJ-35, 10 mM MgCl 2, 1 mM EGTA. […]
as §6, §7

Chain of Clk3 (P49761 whole entry): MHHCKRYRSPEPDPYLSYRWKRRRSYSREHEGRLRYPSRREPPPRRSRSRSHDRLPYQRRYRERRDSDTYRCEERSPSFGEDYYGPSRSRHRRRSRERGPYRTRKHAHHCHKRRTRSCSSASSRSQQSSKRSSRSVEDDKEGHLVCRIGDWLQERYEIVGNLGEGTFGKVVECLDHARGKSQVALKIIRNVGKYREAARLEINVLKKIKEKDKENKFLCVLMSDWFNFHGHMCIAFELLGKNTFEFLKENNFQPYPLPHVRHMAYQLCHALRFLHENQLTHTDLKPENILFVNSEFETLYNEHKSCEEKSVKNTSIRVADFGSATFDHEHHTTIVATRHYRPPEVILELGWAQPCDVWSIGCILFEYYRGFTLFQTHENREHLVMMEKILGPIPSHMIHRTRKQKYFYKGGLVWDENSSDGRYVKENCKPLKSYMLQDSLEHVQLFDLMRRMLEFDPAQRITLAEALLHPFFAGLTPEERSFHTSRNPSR
Chain of Dyrk1B (Q9Y463 whole entry): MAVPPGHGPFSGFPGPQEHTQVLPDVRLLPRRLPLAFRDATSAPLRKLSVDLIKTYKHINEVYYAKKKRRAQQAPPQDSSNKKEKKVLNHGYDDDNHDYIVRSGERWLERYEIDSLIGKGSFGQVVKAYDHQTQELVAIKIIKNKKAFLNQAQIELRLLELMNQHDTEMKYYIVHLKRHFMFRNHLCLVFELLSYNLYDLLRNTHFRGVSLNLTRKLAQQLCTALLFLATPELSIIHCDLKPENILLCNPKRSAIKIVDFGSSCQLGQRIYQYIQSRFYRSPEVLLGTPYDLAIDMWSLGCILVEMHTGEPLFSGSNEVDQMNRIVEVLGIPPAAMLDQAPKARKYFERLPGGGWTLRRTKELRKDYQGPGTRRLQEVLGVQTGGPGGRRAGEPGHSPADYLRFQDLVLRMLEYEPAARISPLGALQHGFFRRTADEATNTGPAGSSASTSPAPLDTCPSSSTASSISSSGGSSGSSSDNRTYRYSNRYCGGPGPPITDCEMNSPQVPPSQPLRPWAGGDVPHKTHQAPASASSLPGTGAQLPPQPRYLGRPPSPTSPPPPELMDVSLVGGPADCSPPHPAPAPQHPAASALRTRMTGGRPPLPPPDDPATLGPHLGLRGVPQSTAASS

Consider `COc1cccc(CNC(=O)c2cc3cc(O)ccc3s2)c1` [Compound 12, 5-Hydroxy-N-(3-methoxybenzyl)benzo[b]thiophene-2-carboxamide], for which the inhibition at 1 µM on Clk3 was determined as 26%; on Dyrk1B it was 81%; at Dyrk1A, 65%. Moreover, the inhibition at 20 µM in the data set on T24 cells turned out to be 100%; in the data set with A549 cells it was 41 ± 8.96%; in the data set on MCF-7 cells it was 93.5 ± 0.17%; in the data set with HCT-116 cells, 75.7 ± 0.31%. Also, the half-maximal inhibitory concentration (IC50) in the data set on T24 cells is 6000 nM; at Dyrk1B, 238 nM; with HCT-116 cells, 6.4 µM; at Dyrk1A it was 536 nM.

In turn, `COc1ccccc1CNC(=O)c1cc2cc(O)ccc2s1` [Compound 11, 5-Hydroxy-N-(2-methoxybenzyl)benzo[b]thiophene-2-carboxamide] registered a melting point of 128.5 to 130.7 °C. The molecule further showed an inhibition at 1 µM on Clk3 of 24%. In addition, the inhibition at 20 µM in the data set with T24 cells came out at 55.3 ± 3.3%. The inhibition at 20 µM in the data set on A549 cells is 34.7 ± 3.91%. Further, the inhibition at 20 µM in the data set on MCF-7 cells worked out at 56.4 ± 4.47%. Also, on Dyrk1B, the IC50 worked out at 578 nM and the inhibition at 1 µM stood at 64%. Besides, the inhibition at 20 µM with HCT-116 cells was 0%. For the same molecule, at Dyrk1A, the IC50 amounted to 565 nM and the inhibition at 1 µM was determined as 64%.

For `O=C(NCc1cc(F)cc(F)c1)c1cc2cc(O)ccc2s1` [Compound 17, N-(3,5-Difluorobenzyl)-5-hydroxybenzo[b]thiophene-2-carboxamide], the inhibition at 1 µM came out at 26% at Clk3, 81% at Dyrk1B and 67% on Dyrk1A. The inhibition at 20 µM with T24 cells turned out to be 59.9 ± 2.05%; in the data set with A549 cells it was 38.8 ± 4.06%; in the data set with MCF-7 cells, 20.9 ± 2.02%; in the data set with HCT-116 cells it was 67.6 ± 0.58%. In addition, the 50% inhibitory concentration (IC50) was 14900 nM with T24 cells, 242 nM on Dyrk1B, 8.1 µM in the data set on HCT-116 cells and 495 nM at Dyrk1A. Besides, on Dyrk1B (ratio of IC50 vs compound 1), the “Improvement in inhibitory activity against Dyrk1B compared to compound 1” value came to 4 fold.

In turn, `O=C(NCc1cccc(F)c1)c1cc2cc(O)ccc2s1` [Compound 6, N-(3-Fluorobenzyl)-5-hydroxybenzo[b]thiophene-2-carboxamide] had a melting point of 176.7 to 177.7 °C. On Clk3, this molecule had an inhibition at 1 µM of 27%. Also, the inhibition at 20 µM with T24 cells turned out to be 49.3 ± 6.04%. For the same molecule, the inhibition at 20 µM in the data set on A549 cells turned out to be 36.5 ± 1.57%. For the same molecule, the inhibition at 20 µM in the data set with MCF-7 cells is 16.2 ± 2.2%. In addition, on Dyrk1B, the IC50 was 406 nM and the inhibition at 1 µM amounted to 71%. In addition, the inhibition at 20 µM in the data set on HCT-116 cells is 60.1 ± 3.11%. Moreover, at Dyrk1A, the IC50 amounted to 666 nM and the inhibition at 1 µM was 60%.

`O=C(NCc1cccc(Cl)c1)c1cc2cc(O)ccc2s1` [Compound 3, N-(3-Chlorobenzyl)-5-hydroxybenzo[b]thiophene-2-carboxamide] registered a melting point of 211.2 to 212.3 °C. On Clk3, the inhibition at 1 µM turned out to be 22%. For the same molecule, in the data set with T24 cells, the inhibition at 20 µM was found to be 68.6 ± 3.95% and half-maximal inhibition (IC50) required 14000 nM. Besides, the inhibition at 20 µM in the data set with A549 cells stood at 54.7 ± 3.77%. Also, the inhibition at 20 µM with MCF-7 cells turned out to be 15.6 ± 3.85%. Also, at Dyrk1B, the IC50 turned out to be 530 nM and the inhibition at 1 µM amounted to 66%. The inhibition at 20 µM with HCT-116 cells came to 25.9 ± 2.54%. At Dyrk1A, the concentration for half-maximal inhibition (IC50) is 751 nM and the inhibition at 1 µM worked out at 60%.
